Measurements reported in patent US20060281807A1, “Quassinoid compositions for the treatment of cancer and other proliferative diseases” (Tapestry Pharmaceuticals, Inc., priority 2005, published 2006).
≈ marks a conversion by molar mass, not a printed value. Where “and” joins values, the source holds several entries; their conditions need not be identical. Identical values can stand only once. Like-named read-outs stand apart in the source and are kept apart here.

How the values were obtained:
SK-N-AS = test: MTT cytotoxicity assay (% kill), SK-N-AS; type: cell-based, human; details: MTT after five days
Procedure: (§1) The following human tumor cell lines were obtained and cultured in sextuplicate microwells at 37° C. and 5% CO2 in humidified air and in 10% FBS in Eagles MEM: SK—N—FI, SK—N-AS, LS-174T, WiDr, HuTu-80, MCF7, NCI-AR, MES-Sar, and PL-45. Cells from each cell line were separately treated with an amount of one of the compounds of Formula I, II, or III (see Table 1). Cells were exposed to each compound (0.1 μg/mL or 1.0 μg/mL) for one hour or 24 hours, rinsed with drug-free media, and incubated for an additional five days. The number of viable cells after five days was measured using an MTT (3-(4,5-dimethylthiazol-2-yl)-2,5-diphenyltetrazolium bromide) assay (see, e.g., Mosmann, J. Immunol. Methods, 65(1-2), 55-63 (1983)).
(§2) The cytotoxicity of each drug was determined and expressed as the percent of cells killed (“% kill”).

LS-174T = test: MTT cytotoxicity assay (% kill), LS-174T; type: cell-based, human; details: 1 h exposure, MTT after five days
Procedure: as §1, §2

NCI-AR = test: MTT cytotoxicity assay (% kill), NCI-AR; type: cell-based, human; details: 1 h exposure
Procedure: as §1, §2

[1] = test system: Colon 38 (murine colon adenocarcinoma); test: Disk diffusion assay, zone of inhibition, Colon 38; zone differentials, potency and product; type: cell-based; set-up: key to C38ΔL1210 / C38ΔCFU: difference of zone of inhibition values, in zone units; details: for Sum: C38ΔL1210 plus C38ΔCFU; for C38ΔL1210 / C38ΔCFU: difference between zone of inhibition values; for C38ΔL1210: Colon38 vs L1210 leukemia; for C38ΔCFU: Colon38 vs normal cell CFU-GM; for Product: potency multiplied by zone differentials; for zone of inhibition, Colon 38: 1 mg/mL
Summary of the method: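 Dissociated Colon 38 cells were plated in soft agar over a hard agar layer; 15 µl of compound dilution dried on a 6.5 mm disk was placed on the plate, and incubation ran 7–10 days. Inhibition zone was measured from disk edge to normal colonies, with the disk diameter = 200 units. Potency = dilution giving 500 units; the product multiplies it by the differentials against L1210 or CFU-GM.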

WiDr = test: MTT cytotoxicity assay (% kill), WiDr; type: cell-based, human; details: 1 h exposure
Procedure: as §1, §2

MES-Sar = test: MTT cytotoxicity assay (% kill), MES-Sar; type: cell-based, human; details: 1 h exposure
Procedure: as §1, §2

HCT-116 cells [2] = test: Clonogenic assay, HCT-116; type: cell-based, human; details: colonies at 7 days
Procedure: A clonogenic assay was performed using HCT-116 cells. Specifically, HCT-116 cells were seeded at 200 to 20,000 cells in 60 mm dishes. […] At either 2 hours or 24 hours following drug administration, the drug-containing media was removed, and fresh media without drug was added. In addition, one group of cells was subjected to continuous drug exposure for the entire incubation period. The dishes were incubated for 7 days (at 37° C. and 5% CO2), media was removed, and the colonies were stained with methylene blue. Colonies containing 50 cells or more were counted. The results were normalized to an untreated control. Plating efficiency for the untreated cells was about 90%. Repeat experiments also were carried out to define the cell survival range between 1 (100%) and 10^−3 (0.1%) survival. A survival rate of 10^−1 was chosen as the minimal level that would be required in vivo to achieve therapeutic efficacy against HCT-116 cells in tumor-bearing mice. The clonogenic dose response to 15-O-(3′-hydroxy-3′-isopropyl-4′-methylpentanoyl)bruceolide is illustrated in FIG. 4. The clonogenic dose response to 15-(3-isopropyl-4-methyl-2-pentenoyl)-bruceolide is illustrated in FIG. 5.

HCT-116 cells [3] = test: HCT-116 cytotoxicity, viable cell count by trypan blue; type: cell-based, human
[4] = Maximum tolerated dose in mice; details: first stage, one mouse per dose
Procedure: Formulations containing 15-O-(3′-hydroxy-3′-isopropyl-4′-methylpentanoyl)bruceolide, 15-(3-isopropyl-4-methyl-2-pentenoyl)-bruceolide, and, for comparative purposes, bruceantin, or peninsularinone were prepared by solubilizing each compound in up to 100 mg/mL of ethanol. These solutions were diluted 1:1 with a stabilizer (Cremophor/propylene glycol). The solutions were then diluted in saline (1:10 minimum).
The maximum tolerated dose (MTD) was determined by a two-stage experiment. In the first stage, between 1 and 10 mg/mL of the formulation was prepared as described above. Next, 0.25 mL of the formulation was injected intravenously into one 20 gram mouse (0.75 mg/mouse). If the animal died within 30 days of injection, a series of subsequent 2-fold dilutions were administered to individual mice until an MTD was defined. […] The second stage of the study involved increasing the number of mice per dose to four, and retesting four dilutions that bracket the MTD from the individual mouse study. The four dilutions were the MTD, a dosage twice the MTD, a dosage ½ the MTD, and a dosage ¼ the MTD.

[5] = test system: HCT116 (human colorectal carcinoma); test: Disk diffusion assay, zone of inhibition, HCT116; type: cell-based; details: 1 mg/mL
Procedure: (§3) A disk diffusion assay was performed to define the differential cell killing ability of 15-O-(3′-hydroxy-3′-isopropyl-4′-methylpentanoyl)bruceolide. Seven cell types were assayed: L1210 (ATCC CCL-219) (murine leukemia), CCRF-CEM (ATCC CCL-119) (human leukemia), Colon 38 (murine colon adenocarcinoma), HCT116 (ATCC CCL-247) (human colorectal carcinoma), H125 (human lung carcinoma). The murine and human granulocyte/macrophage progenitor cell line (CFU-GM), served as controls.
(§4) Colon 38 cells (about 1 gram) were cut into small fragments in 15 mL of Hank's Balanced Salt Solution (HBSS) over a 100-mesh sieve and gently forced through by the scissors with HBSS constantly perfusing the sieve. The resulting material was then drawn into and out of a 5 mL syringe without a needle to further disperse the cell clumps. The cell solution was diluted and plated in 0.3% agarose in DMEM plus 10% heat-inactivated Bovine Calf Serum (BCS). For plating of all of the cell types (except controls), the 60 mm plates were first prepared with a hard agar bottom layer (0.6% agar in RPMI-1640 plus 15% BCS).
(§5) HCT116 and H125 cells were maintained in cell culture, and were removed from culture by a trypsin-collagenase-DNAase cocktail. The plating efficiencies of each cell type was sufficiently high that 30,000 cells in 3 mL produced the desired number of colonies (i.e., over 10,000 per plate) in 60 mm plates. This soft agar top layer (0.3% with the serum and media as above) plus the titrated tumor cells were poured into the plates and allowed to solidify.
(§6) A 15 μl sample of each compound was dropped onto a 6.5 mm disk (Baxter filter disks). The disks were allowed to dry overnight and then placed close to the edge of a petri dish. Depending upon the cell type, the dishes were incubated for 7 to 10 days, and examined by an inverted stereo-microscope (10×) for measurement of the zone of inhibition. The zone of inhibition was measured from the edge of the filter disk to the beginning of normal-sized colony formation. The diameter of the filter disk, 6.5 mm, was arbitrarily taken as a zone of 200 units. Compounds that were selective for killing solid tumors, as compared to leukemia or normal cells (“solid tumor selective”) were defined as those compounds which produced a difference in zones between solid tumor cells and either normal or leukemia cells of at least 250 units. The results of this analysis are set forth in Table 4, which illustrates the relative diameters of the zones of inhibition by various drugs on the growth of the respective cell types at various drug dilutions.

murine CFU-GM = test: Disk diffusion assay, zone of inhibition, murine CFU-GM; type: cell-based; details: 1 mg/mL
Procedure: as §3
(§7) For CFU-GM cells, the femoral marrow of BD2F1 mice was flushed with MEM alpha (2 mL per femur). The cells were passed through an 18 gauge needle twice and the monodispersed suspension was counted. A total of 1.5×10^6 cells were plated in 3 mL of 0.3% agar with the addition of 10% L cell conditioned media, which provided colony stimulating factor, in MEM-alpha plus 10% BCS. For human CFU-GM, the cells were obtained from Poietic Technologies, Inc. (Gaithersburg, Md.) and washed twice with PBS before being titered and added to the agar mixture. The same cell number, culture conditions, and conditioning factors used with respect to the murine CFU-GM cells were used with the human cells, except that the cultures were assessed after 10 days of incubation.
as §6

[6] = test system: H125 (human lung carcinoma); test: Disk diffusion assay, zone of inhibition, H125; type: cell-based; details: 1 mg/mL
Procedure: as §3, §4, §5, §6

L1210 (murine leukemia) = test: Disk diffusion assay, zone of inhibition, L1210; type: cell-based; details: 1 mg/mL
Procedure: as §3, §4, §6

[7] = test system: CCRF-CEM (human leukemia); test: Disk diffusion assay, zone of inhibition, CCRF-CEM; type: cell-based; details: 1 mg/mL, dilution 1/100
Procedure: as §3, §4, §6

human CFU-GM = type: cell-based; details: 1 mg/mL
Procedure: as §3, §7, §6

[8] = no dilution, 15 μl on disk, 6.5 mm = 200 units

## CCC(O)(CC(=O)OC1C(=O)OC2CC3C(C)=C(O)C(=O)CC3(C)C3C(O)C(O)C4(C(=O)OC)OCC23C14)C(C)C (mixture of isomers) [(+/−)-15-O-(3′-ethyl-3′-hydroxy-4′-methyl)-bruceolide]
SK-N-AS; 0.1 μg/mL, 1 h exposure
  % Kill, SK-N-AS: 0%
SK-N-AS; 0.1 μg/mL, 24 h exposure
  % Kill, SK-N-AS: 0%
SK-N-AS; 1.0 μg/mL, 1 h exposure
  % Kill, SK-N-AS: 0%
SK-N-AS; 1.0 μg/mL, 24 h exposure
  % Kill, SK-N-AS: 0%
LS-174T; 0.1 μg/mL
  % Kill, LS-174T: 0%
LS-174T; 1.0 μg/mL
  % Kill, LS-174T: 0%
NCI-AR; 0.1 μg/mL
  % kill, NCI-AR: 0%
NCI-AR; 1.0 μg/mL
  % kill, NCI-AR: 0%
[1]
  Sum: 1150
  C38ΔL1210: 600
  C38ΔCFU: 550
  Product: 3450
WiDr; 0.1 μg/mL
  % kill, WiDr: 0%
WiDr; 1.0 μg/mL
  % kill, WiDr: 0%
MES-Sar; 0.1 μg/mL
  % kill, MES Sar: 0%
MES-Sar; 1.0 μg/mL
  % kill, MES Sar: 0%

## COC(=O)[C@@]12OC[C@]34[C@H]([C@@H](O)[C@@H]1O)[C@@]1(C)CC(=O)C(O)=C(C)[C@@H]1C[C@H]3OC(=O)[C@H](OC(=O)/C=C(\C)C(C)C)[C@@H]24 [Bruceantin, bruceantin]
HCT-116 cells [2]; HCT-116, 2 Hour Exposure
  Concentration Required for 10^−1 Survival Fraction: >10 μg/mL
HCT-116 cells [2]; HCT-116, 24 Hour Exposure
  Concentration Required for 10^−1 Survival Fraction: >10 μg/mL
HCT-116 cells [2]; HCT-116, Continuous Exposure
  Concentration Required for 10^−1 Survival Fraction: 2 × 10^−3 μg/mL
HCT-116 cells [3]; HCT-116
  IC90/IC50: 6,700
HCT-116 cells [3]; Homo sapiens, 72 h, HCT-116, 3 days with compound, viable cells, by interpolation, read-out: IC50
  IC50: 0.0015 µg/mL (≈ 0.00273 µM)
HCT-116 cells [3]; Homo sapiens, 72 h, HCT-116, 3 days with compound, viable cells, by interpolation, read-out: IC90
  IC90: 10 µg/mL (≈ 18.2 µM)
[1]; dilution 1/10
  zone of inhibition, Colon 38: >1000 units
[1]; dilution 1/100
  zone of inhibition, Colon 38: 600 units and 1000 units
[1]; dilution 1/1000
  zone of inhibition, Colon 38: 600 units and 450 units
[1]; [8]
  zone of inhibition, Colon 38: >1000 units
[1]
  Sum: 1050
  C38ΔL1210: 500
  C38ΔCFU: 550
  Product: 6300
[4]; intravenous
  maximum tolerated dose, Dose - 1 Mouse: 0.1 mg/mouse
[4]; mouse, in vivo, iv, maximum tolerated dose, Dose - 1 Mouse
  MTD: 5.4 mg/kg
[5]; dilution 1/10
  zone of inhibition, H-116: 1000 units
[5]; dilution 1/100
  zone of inhibition, H-116: 400 units
[5]; dilution 1/1000
  zone of inhibition, H-116: 0 units
[5]; [8]
  zone of inhibition, H-116: >1000 units
Murine CFU-GM; dilution 1/10
  zone of inhibition, murine CFU-GM: 550 units
Murine CFU-GM; dilution 1/100
  zone of inhibition, murine CFU-GM: 150 units and 200 units
Murine CFU-GM; dilution 1/1000
  zone of inhibition, murine CFU-GM: 0 units
[6]; dilution 1/10
  zone of inhibition, H-125 M: >1000 units
[6]; dilution 1/100
  zone of inhibition, H-125 M: 600 units
[6]; dilution 1/1000
  zone of inhibition, H-125 M: 100 units
[6]; [8]
  zone of inhibition, H-125 M: >1000 units
L1210 (murine leukemia); dilution 1/10
  zone of inhibition, L1210: 1000 units
L1210 (murine leukemia); [8]
  zone of inhibition, L1210: >1000 units
[7]
  zone of inhibition, CEM: 450 units
Human CFU-GM; dilution 1/10
  zone of inhibition, human CFU-GM: >1000 units
Human CFU-GM; dilution 1/100
  zone of inhibition, human CFU-GM: 650 units
